Biological target: T1, plasma kallikrein (PKa) (Homo sapiens, UniProt P03952)
T1 construct: purchased R & D 2497-SE
Experiment: Inhibitory activity against plasma kallikrein in vitro (fluorescence intensity enzyme assay, Pro-Phe-Arg-AMC substrate)
Assay type: biochemical
Conditions: plasma kallikrein enzyme assay, Pro-Phe-Arg-AMC substrate; read-out: PKa IC50
Procedure: Test of the inhibitory activities of the compounds of the present invention against plasma kallikrein (PKa), KLK1 and FXIa in vitro.
The final concentrations of enzyme protein and Pro-Phe-Arg-AMC in the reaction mixture were 10 nM and 60 µM, respectively. The starting concentration of the positive reference substance Avoralstat was 100 nM, 3-fold dilution, 10 + 0 dose. 0.05 µL of compound in 100% DMSO was delivered to a 384-well plate by an acoustic liquid delivery technique (Echo665; nanoliter range). Compound duplex test. […] IC50 values and nonlinear regression curve fitting were obtained using GraphPad Prism software.

T1 sequence (P03952 391-638 limits assumed): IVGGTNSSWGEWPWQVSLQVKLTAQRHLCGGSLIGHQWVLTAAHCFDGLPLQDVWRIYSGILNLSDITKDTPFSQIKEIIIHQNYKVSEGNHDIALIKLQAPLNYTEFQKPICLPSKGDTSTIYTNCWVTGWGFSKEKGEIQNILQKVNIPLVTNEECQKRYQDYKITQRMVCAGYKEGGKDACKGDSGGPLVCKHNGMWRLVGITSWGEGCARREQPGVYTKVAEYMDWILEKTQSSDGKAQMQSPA
T1 sequence (P03952 20-390 partner limits assumed): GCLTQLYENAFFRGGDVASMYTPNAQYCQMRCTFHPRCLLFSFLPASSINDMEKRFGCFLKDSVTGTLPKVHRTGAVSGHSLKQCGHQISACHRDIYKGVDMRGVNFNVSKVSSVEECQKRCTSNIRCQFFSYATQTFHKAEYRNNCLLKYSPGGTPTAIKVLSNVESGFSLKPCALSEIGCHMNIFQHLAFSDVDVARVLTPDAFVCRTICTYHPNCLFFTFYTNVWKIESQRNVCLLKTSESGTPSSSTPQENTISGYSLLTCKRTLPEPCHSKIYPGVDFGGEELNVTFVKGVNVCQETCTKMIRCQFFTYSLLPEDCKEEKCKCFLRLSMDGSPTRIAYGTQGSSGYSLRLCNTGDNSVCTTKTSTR

Compound | IC50
COc1ccnc(CNC(=O)c2cn(Cc3ccc(Cn4ccccc4=O)cc3)nc2CN2C(=O)CCCC2=O)c1F [Compound 308] | 0.00349 µM
COc1ccc(F)c(CNC(=O)c2cn(Cc3ccc(Cn4cc(F)ccc4=O)cc3)nc2COCC2(F)COC2)c1F [Compound 234] | 0.00497 µM
COCc1nn(Cc2ccc(Cn3ccccc3=O)cc2)cc1C(=O)NCc1cc2cnccc2n1C [Compound 161] | 0.0127 µM
COc1ccnc(CNC(=O)c2cn(Cc3ccc(Cn4ccccc4=O)cc3)nc2C2CC(C)(OC)C2)c1F (stereo not drawn) [Compound 210] | 0.00599 µM
COc1ccnc(CNC(=O)c2cn(Cc3ccc(Cn4ccccc4=O)cc3)nc2CN2CC(C)(C)CC2=O)c1F [Compound 174] | 0.0115 µM
COc1ccc(F)c(CNC(=O)c2cn(Cc3ccc(Cn4cc(F)ccc4=O)cc3)nc2N[C@H]2CCOC2)c1F [Compound 298] | 0.00279 µM
Cn1ccc2c(CNC(=O)c3cn(Cc4ccc(Cn5ccccc5=O)cc4)nc3C3COC3)nccc21 [Compound 336] | 0.0139 µM
CN(C)c1ccnc(CNC(=O)c2cn(Cc3ccc(CC4CC4)cc3)nc2C2COC2)c1F [Compound 334] | 0.421 µM
COc1ccnc(CNC(=O)c2cn(Cc3ccc(Cn4cc(F)ccc4=O)cc3)nc2COCC2(C)COC2)c1F [Compound 286] | 0.0108 µM
O=C(NCc1nccc(NC2CCC2)c1F)c1cn(Cc2ccc(Cn3ccccc3=O)cc2)nc1N1CC(F)(F)C1 [Compound 278] | > 1 µM
CNc1ccnc(CNC(=O)c2cn(Cc3ccc(Cn4ccccc4=O)cc3)nc2C2COC2)c1F [Compound 260, N-((3-fluoro-4-(methylamino)pyridin-2-yl)methyl)-3-(oxetan-3-yl)-1-(4-((2-oxopyridin-1(2H)-yl)methyl)benzyl)-1H-pyrazole-4-carboxamide] | 0.00778 µM
COCc1nn(Cc2ccc(CC3CC3)cc2)cc1C(=O)NCc1nccc(OC)c1F [Compound 91, 1-(4-(cyclopropylmethyl)benzyl)-N-((3-fluoro-4-methoxypyridin-2-yl)methyl)-3-(methoxymethyl)-1H-pyrazole-4-carboxamide] | > 0.1 µM
COCc1nn(Cc2ccc(Cn3ccccc3=O)cc2)cc1C(=O)NCc1cn2ccc(Cl)c(F)c2n1 [Compound 120] | > 1 µM
Nc1nc2ccc(CNC(=O)c3cnn(Cc4ccc(Cn5ccccc5=O)cc4)c3)cc2s1 [Compound 215] | 0.797 µM
O=C(NCc1nccc(C2CC2)c1F)c1cn(Cc2ccc(Cn3ccccc3=O)cc2)nc1C1CC(F)(F)C1 [Compound 340] | 0.048 µM
COc1ccnc(CNC(=O)c2cn(Cc3ccc(Cn4ccccc4=O)cc3)nc2CN2C(=O)CC(C)(C)CC2=O)c1F [Compound 305] | 0.0124 µM
O=C(NCc1nccc(NCC2CC2)c1F)c1cn(Cc2ccc(Cn3ccccc3=O)cc2)nc1N1CC(F)(F)C1 [Compound 277] | > 1 µM
COCc1nn(Cc2ccc(CN3CCCCC3=O)cc2)cc1C(=O)NCc1nccc(OC)c1F [Compound 77] | 0.0629 µM
CC(C)CNc1ccnc(CNC(=O)c2cn(Cc3ccc(Cn4ccccc4=O)cc3)nc2N2CC(F)(F)C2)c1F [Compound 279] | > 1 µM
COCc1nn(Cc2ccc(Cn3ccccc3=O)cc2)cc1C(=O)NCc1[nH]c2cnccc2c1Cl [Compound 136] | 0.0362 µM
COc1ccnc(CNC(=O)c2cn(Cc3ccc(Cn4ccccc4=O)cc3)nc2NC2(C)COC2)c1F [Compound 297] | 0.00283 µM
COc1ccnc(CNC(=O)c2cn(Cc3ccc(Cn4ccccc4=O)cc3)nc2COC2CCCOC2)c1F (stereo not drawn) [Compound 294] | 0.0106 µM

Compound | IC50
COCc1nn(Cc2ccc(-n3ccccc3=O)cc2)cc1C(=O)NC1CCc2c1ncn2C (stereo not drawn) [Compound 96] | > 0.1 µM
N=C(N)c1cnc(CNC(=O)c2cnn(Cc3ccc(CC4CC4)cc3)c2)cn1 [Compound 330] | 0.855 µM
COCc1nn(Cc2ccc(-n3ccccc3=O)cc2)cc1C(=O)NCc1nc2c(s1)CNCC2 [Compound 107] | > 0.1 µM
N=C(N)c1ccc(CNC(=O)c2cnn(Cc3ccc(OCC4CC4)cc3)c2)cc1 [Compound 360] | 0.00329 µM
Nc1cc2c(cn1)[C@@H](NC(=O)c1ncn(Cc3ccc(Cn4ccccc4=O)cc3)n1)CO2 [Compound 82] | 0.0266 µM
N#Cc1cc(N2CC3C(C2)C3(F)F)ccc1Cn1cc(C(=O)NCc2cc3ccncc3[nH]2)c(C(F)(F)F)n1 (stereo not drawn) [Compound 178] | 0.00774 µM
COc1ccc(F)c(CNC(=O)c2cn(Cc3ccc(Cn4cc(F)ccc4=O)cc3)nc2COCCN(C)C)c1F [Compound 219] | 0.00498 µM
COCCOCc1nn(Cc2ccc(Cn3ccccc3=O)cc2)cc1C(=O)NCc1nccc(OC)c1F [Compound 162] | 0.00868 µM
O=C(NCc1nccc2[nH]ccc12)c1cn(Cc2ccc(Cn3ccccc3=O)cc2)nc1C1COC1 [Compound 325] | 0.0386 µM
O=C(NCc1nccc(N2CCCC2)c1F)c1cn(Cc2ccc(CC3CC3)cc2)nc1C1COC1 [Compound 333] | > 1 µM
COCCn1c(CNC(=O)c2cn(Cc3ccc(Cn4ccccc4=O)cc3)nc2COC)cc2cnccc21 [Compound 192] | > 1 µM
O=C(NCc1cc2ccncc2[nH]1)c1cn(Cc2ccc(Oc3ccccc3)cc2)nc1C(F)(F)F [Compound 186] | 0.709 µM
N-((3-fluoro-4-methoxypyridin-2-yl)methyl)-3-(methoxymethyl)-1-(4-((2-oxo-2,3-dihydro-1H-pyrrolo[3,2-b]pyridin-1-yl)methyl]benzyl)-1H-pyrazole-4-carboxamide [Compound 113] | > 0.1 µM
N=C(N)c1ccc(CNC(=O)c2cnn(Cc3ccc(CC4CC4)cc3)c2)nc1 [Compound 243] | 0.0143 µM
CCc1cc(N2CC3C(C2)C3(F)F)ccc1Cn1cc(C(=O)NCc2cc3cnccc3[nH]2)c(COC)n1 (stereo not drawn) [Compound 195] | 0.192 µM
C#Cc1nn(Cc2ccc(Cn3ccccc3=O)cc2)cc1C(=O)NCc1c(C)cc(N)nc1C [Compound 81] | 0.077 µM
COCc1nn(Cc2ccc(Cn3ccccc3=O)cc2)cc1C(=O)NCc1nc2c(s1)CNCC2 [Compound 152] | 0.594 µM
COc1ccnc(CNC(=O)c2cn(Cc3ccc(Cn4ccccc4=O)cc3)nc2CN2CC3(COC3)C2)c1F [Compound 238] | 0.00915 µM
COCc1nn(Cc2ccc(-n3ccccc3=O)cc2)cc1C(=O)NCc1cn2c(n1)CNCC2 [Compound 145] | > 1 µM
COc1ccnc(CNC(=O)c2cn(Cc3ccc(Cn4c(C(F)(F)F)nccc4=O)cc3)nc2C(F)(F)F)c1F [Compound 198] | > 1 µM
Cc1cc2ncnn2c(C)c1CNC(=O)c1cn(Cc2ccc(Cn3ccccc3=O)cc2)nc1C(F)(F)F [Compound 206] | 0.318 µM
Cn1cc(Cl)c2cnc(CNC(=O)c3cnn(Cc4ccc(Cn5ccccc5=O)cc4)c3)c(F)c21 [Compound 367] | 0.043 µM

Compound | IC50
CNc1ccnc(CNC(=O)c2cn(Cc3ccc(CC4CC4)cc3)nc2C2COC2)c1F [Compound 344] | 0.237 µM
CN(C)c1ccnc(CNC(=O)c2cn(Cc3ccc(Cn4ccccc4=O)cc3)nc2N2CC3(C2)OCC3(C)C)c1F [Compound 313] | 0.00324 µM
O=C(NCc1nccc(C2CC2)c1F)c1cn(Cc2ccc(Cn3ccccc3=O)cc2)nc1C1COC1 [Compound 339] | 0.0316 µM
CNc1ccnc(CNC(=O)c2cn(Cc3ccc(Cn4ccccc4=O)cc3)nc2N2CC(F)(F)C2)c1F [Compound 265] | 0.00691 µM
COc1ccnc(CNC(=O)c2cn(Cc3ccc(Cn4ccccc4=O)cc3)nc2N2CC(OC(C)C)C2)c1F [Compound 307] | 0.00457 µM
COc1ccc(F)c(CNC(=O)c2cn(Cc3ccc(Cn4cc(F)ccc4=O)cc3)nc2COCCN2CCCC2)c1F [Compound 231] | 0.00366 µM
N=C(N)c1ccc(CNC(=O)c2cnn(Cc3c(Cl)cc(OCC4CC4)cc3Cl)c2)cc1 [Compound 359] | 0.00315 µM
COc1ccnc(CNC(=O)c2cn(Cc3ccc(Cn4ccccc4=O)cc3)nc2-c2cnccn2)c1F [Compound 301] | 0.0249 µM
COCc1nn(Cc2ccc(Cn3c(=O)sc4ccccc43)cc2)cc1C(=O)NCc1nccc(OC)c1F [Compound 140] | 0.078 µM
COc1ccnc(CNC(=O)c2cn(Cc3ccc(Cn4ccccc4=O)cc3)nc2C2CN(C(=O)C(C)C)C2)c1F [Compound 173] | 0.0118 µM
CCn1c(CNC(=O)c2cn(Cc3ccc(Cn4ccccc4=O)cc3)nc2COC)cc2cnccc21 [Compound 176] | 0.018 µM
COc1ccc(F)c(CNC(=O)c2cn(Cc3ccc(Cn4cc(F)ccc4=O)cc3)nc2OCCF)c1F [Compound 226] | 0.0109 µM
COc1ccc(Cl)c(CNC(=O)c2cn(Cc3ccc(Cn4ccccc4=O)cc3)nc2N2CC(F)(F)C2)c1F [Compound 290] | 0.00462 µM
COc1ccc(F)c(CNC(=O)c2cn(Cc3ccc(Cn4ccccc4=O)cc3)nc2CN2C(=O)CCC2=O)c1F [Compound 248] | 0.00285 µM
COCc1nn(Cc2ccc(Cn3ccc4ncccc43)cc2)cc1C(=O)NCc1nccc(OC)c1F [Compound 98] | 0.245 µM
COc1ccnc(CNC(=O)c2cn(Cc3ccc(Cn4ccccc4=O)cc3)nc2N2CC[C@@H](OC)C2)c1F [Compound 171] | 0.086 µM
COc1ccc(C#N)c(CNC(=O)c2cnn(Cc3ccc(Cn4ccccc4=O)cc3)c2)c1C [Compound 189] | 0.18 µM
COc1ccnc(CNC(=O)c2cn(Cc3ccc(Cn4ccccc4=O)cc3)nc2C2CC(OC)C2)c1F (stereo not drawn) [Compound 208] | 0.00799 µM
CCN(CC)CCOCc1nn(Cc2ccc(Cn3ccccc3=O)cc2)cc1C(=O)NCc1nccc(OC)c1F [Compound 239] | 0.00695 µM
Cc1cc(N)nc(C)c1CNC(=O)c1nc(Cc2ccc(Cn3ccccc3=O)cc2)nn1C [Compound 29] | > 1 µM
O=C(NCc1ccc2cnccc2c1)c1cnn(Cc2ccc(Cn3ccccc3=O)cc2)c1 [Compound 207] | 0.165 µM
COCC1CN(c2nn(Cc3ccc(Cn4ccccc4=O)cc3)cc2C(=O)NCc2nccc(OC)c2F)C1 [Compound 306] | 0.0128 µM
